Experimental data from patent US20080108694A1, “Novel Macrocycles and Uses Thereof” (priority 2003, published 2008).
Converted amounts (≈) assume the structure as drawn. Where two headings read alike, the source gives them in different places. Values belong to the compound of their own block, whether it stands above or below them.

Experiments:
[1] = tested on: small cell lung cancer cell line with defective Rb function; assay: Inhibition of small cell lung cancer cell line with defective Rb function; format: cell-based, human
Protocol: (§1) Growth assays were performed by seeding 10000 cells (MCF7, BT474 or N417) per well in 6-welldishes and incubating for 24 h before drug treatment. Drugs or vehicle were administered as outlined for each experiment, and cells were incubated for the time periods depicted and then the number quantified by a Coulter counter.

HER2 [2] = assay: Her2 degradation in drug-treated MCF-7 cells by immunoblotting; format: cell-based, human; conditions: for concentration at which Her2 is degraded: P85 control
Protocol: To confirm that the cytotoxicity was indeed due to the inhibition of Hsp90, we set out to investigate the degradation of Her2, one of the most sensitive client proteins of this chaperone. The expression levels of Her2 of drug-treated MCF-7 cells were analyzed using immunoblotting (FIG. 31). P85, used as a control, is not a client protein of Hsp90. As expected, the growth inhibition activities of the synthetic active analogues are reflected in their capacity to degrade Her2. […] Nonchlorinated difluoro compound 38 degraded Her2 at 1 μM, and its chlorinated counterpart 31, at 10 μM.
Immunoblotting. For immunoblotting, cells in culture were washed and harvested in PBS, and then lysed in NP-40 buffer (50 mMTris, pH 7.5, 1% Nonidet P-40, 150 mM NaCl, 2.5 mM Na3VO4, 10 mM phenylmethylsulfonyl fluoride, and 10 μM each leupeptin, aprotinin, and soybean trypsin inhibitor). Cell lysates were cleared by centrifugation at 14,000×g for 10 minutes, and supernatants were collected as the experimental samples. Protein concentrations were determined using BCA reagent (Pierce Chemical Co., Rockford, Ill.). Lysates were added to sample buffer [0.3125 M Tris-HCl (pH 6.8), 10% SDS, 50% glycerol, and 77.5 mg/ml DTT], and equal amounts of protein were resolved by 7% SDS-PAGE and transferred to nitrocellulose membranes. Blots were blocked in 5% nonfat milk in Tris-buffered saline [0.1% Tween 20, 10 mM Tris (pH 7.4), and 150 mM NaCl] and subsequently probed with antibody (HER2 rabbit polyclonal IgG, Santa Cruz Biotechnology, Santa Cruz, Calif.; and PI3 kinase P85, Upstate Cell Signaling Solutions, Lake Placid, N.Y.). After incubation with horseradish peroxidase-conjugated secondary antibodies, proteins were visualized by chemiluminescence using the ECL detection reagents (Amersham Corp., Piscataway, N.J.). To prepare lysate from xenograft tumors, tumor tissue was homogenized in 2% SDS lysis buffer for 30 s then processed as above.

MCF7 = assay: Alamar blue proliferation assay, growth inhibition of MCF7 breast cancer cells; format: cell-based, human; conditions: for IC50: Homo sapiens
Excerpt: Biological Evaluation of Cycloproparadicicol Analogues. As discussed earlier, it appears that the inhibition of Hsp90 induces the proteasomal degradation of various oncogenic proteins, thereby leading to inhibition of tumor cell growth. We hoped to evaluate our synthetic analogues for their growth inhibition activity against MCF breast cancer cells. […] Further modifications of 27α, however, decreased its potency.
Cell Culture. The human cancer line MCF7 was obtained from American Type Culture Collection (Manassas, Va., USA) and maintained in 1:1 mixture of DME:F12 supplemented with 10% heat-inactivated fetal bovine serum, 2 mM glutamine, 50 units/ml of penicillin and streptomycin, and incubated in a humidified 5% CO2/air atmosphere at 37° C. For the Alamar blue proliferation assay, 2×10^3 cells were plated in 96-well plates. Twenty four hours later, cells were treated with the compound for 72 or 120 hours. On day 3 or 5, Alamar Blue viability assay (AccuMe Westlake, Ohio) was performed as described elsewhere (White, M. J.; DiCaprio, M. J Greenberg, D. A. J. Neurosci. Methods 1996, 70, 195-200; incorporated herein by reference). IC50s were calculated as the doses of the compound required to inhibit cell growth by 50% of control values.

[3] = tested on: breast cancer cell with wild type Rb; assay: Inhibition of breast cancer cell with wild type Rb; format: cell-based, human
Protocol: as §1

HER2 [4] = assay: Reduction of HER2 in MCF7 and BT474 cells (protein assay, gels); format: cell-based, human; conditions: tested at 0.5 μM through 5 μM
Protocol: As depicted in FIGS. 17 and 18, four analogues have been tested for their ability to reduce HER2 in MCF7 and BT474 cells. […] Furthermore, while the vinyl epoxide, a reactive moiety, may be responsible for undesired cytotoxicity, the cyclopropane is far more stabile to non-productive cellular nucleophiles.
The human cancer cell lines MCF7, BT474 and N417 were obtained from the American Type Culture Collection (Manassas, Va., USA) and maintained in a 1:1 mixture of DME:F12 supplemented with 2 mM glutamine, 50 U/mL penicillin, 50 U/mL streptomycin and 5% heat inactivated fetal bovie serum (Gemini Bioproducts) and incubated at 37° C. in 5% CO2.
Cells were grown to 60-70% confluence and exposed to drugs or DMSO vehicle for the indicated time periods. Lysates were prepared using 50 mM Tris pH 7.4, 2% SDS and 10% glycerol lysis buffer. Protein concentration was determined using the BCA kit (Pierce Chemical Co.) according to the manufacturer's instructions. Clarified protein lysates (20-50 μg) were electrophoretically resolved on denaturing SDS-PAGE, transferred to nitrocellulose and probed with the following primary antibodies: anti-Her2 (C-18).

Hsp90 = conditions: cited from earlier work
[5] = rcm bond
[6] = cited from earlier work
MCF7 cells = assay: Growth of MCF7 cells (HER2 overexpressed, Rb positive) treated with radicicol and analogues; format: cell-based, human
KB cells = conditions: cited from earlier work
P. falciparum = conditions: cited from earlier work
[7] = MCF7 cells, 72 h treatment, read-out: IC50 (pM) Values of Cycloproparadicicol Analogues and Aigialomycin D
[8] = MCF breast cancer cells, 72 h treatment
[9] = MCF7, MCF breast cancer cells, 72 h treatment, read-out: IC50 value

Compound: 17-alkylaminogeldanamycin [17-AGG, reference compound]
potency in cells with wild type Rb versus cells with defective Rb function [1]: much more potent against cells with wild type Rb than in cells with defective Rb function

Compound: CC(C)(C)[Si](C)(C)OC1/C=C/C=CCCCCOC(=O)[C]23[Co]4[Co]2[C]43C1.[C-]#[O+].[C-]#[O+].[C-]#[O+].[C-]#[O+].[C-]#[O+].[C-]#[O+] (centres unmarked)
ring closure, yield of all isomers ([5]; from C=CCCCCOC(=O)[C]12[Co]3[Co]1[C]32CC(/C=C/C=C/C)O[Si](C)(C)C(C)(C)C.[C-]#[O+].[C-]#[O+].[C-]#[O+].[C-]#[O+].[C-]#[O+].[C-]#[O+]): 71%

Compound: C[C@@H]1C[C@H]2C[C@@H]2C=C/C=C/C(O[Si](C)(C)C(C)(C)C)CC#CC(=O)O1 (some centres unmarked)
ring closure, yield of all isomers ([5]; from C=C[C@H]1C[C@@H]1C[C@@H](C)OC(=O)[C]12[Co]3[Co]1[C]32CC(/C=C/C=C/C)O[Si](C)(C)C(C)(C)C.[C-]#[O+].[C-]#[O+].[C-]#[O+].[C-]#[O+].[C-]#[O+].[C-]#[O+], 2 steps): 51%

Compound: C[C@@H]1C[C@H]2O[C@@H]2/C=C\C=C\C(=O)Cc2c(Cl)c(O)cc(O)c2C(=O)O1 [radicicol, reference compound]
inhibition of breast cancer cell with wild type Rb [3]: potent inhibitors
inhibition of small cell lung cancer cell line with defective Rb function [1]: potent inhibitors
activity in in vivo (animal) models [6]: ineffective
efficacy in side by side experiment with radicicol (MCF7 cells): demonstrated efficacy

Compound: C[C@H]1C/C=C/[C@@H](O)[C@@H](O)CC/C=C/c2cc(O)cc(O)c2C(=O)O1 [compound 46, Aigialomycin D]
concentration at which Her2 is degraded (HER2 [2]): > 10 µM
IC50 (MCF7; MCF7, 72 h, read-out: IC50 (pM) Values of Cycloproparadicicol Analogues and Aigialomycin D): > 1e+07 pM
growth inhibition activity (MCF7; [8]): significantly less active than the cycloproparadicicol derivatives
IC50 against KB cells (antitumor activity) (KB cells): 3.0 µg/mL (≈ 8.97 µM)
IC50 against P. falciparum (antimalarial activity) (P. falciparum): 6.6 µg/mL (≈ 19.7 µM)

Compound: C[C@@H]1C[C@H]2C[C@@H]2C=C/C=C/C(O[Si](C)(C)C(C)(C)C)CC#CC(=O)N1 (some centres unmarked)
ring closure, yield of all isomers ([5]; from C=C[C@H]1C[C@@H]1C[C@@H](C)NC(=O)C#CCC(/C=C/C=C/C)O[Si](C)(C)C(C)(C)C.[C-]#[O+].[C-]#[O+].[C-]#[O+].[C-]#[O+].[C-]#[O+].[C-]#[O+].[Co].[Co], 2 steps): 60%

Compound: C[C@@H]1C[C@H]2C[C@@H]2C=C/C=C/C(O[Si](C)(C)C(C)(C)C)C[C]23[Co]4[Co]2[C]43C(=O)O1.[C-]#[O+].[C-]#[O+].[C-]#[O+].[C-]#[O+].[C-]#[O+].[C-]#[O+] (some centres unmarked)
ring closure, yield of all isomers ([5]; from C=C[C@H]1C[C@@H]1C[C@@H](C)OC(=O)[C]12[Co]3[Co]1[C]32CC(/C=C/C=C/C)O[Si](C)(C)C(C)(C)C.[C-]#[O+].[C-]#[O+].[C-]#[O+].[C-]#[O+].[C-]#[O+].[C-]#[O+]): 57%

Compound: C[C@H]1CC=C[C@H]2OC(C)(C)O[C@H]2CCC(O[Si](C)(C)C(C)(C)C)C[C]23[Co]4[Co]2[C]43C(=O)O1.[C-]#[O+].[C-]#[O+].[C-]#[O+].[C-]#[O+].[C-]#[O+].[C-]#[O+] (some centres unmarked)
ring closure, yield of all isomers ([5]; from C=CC[C@H](C)OC(=O)[C]12[Co]3[Co]1[C]32CC(CC[C@@H]1OC(C)(C)O[C@@H]1C=C)O[Si](C)(C)C(C)(C)C.[C-]#[O+].[C-]#[O+].[C-]#[O+].[C-]#[O+].[C-]#[O+].[C-]#[O+]): 80%

Continued, in another order:

IC50 (MCF7; [7]): 3e+06 pM
Compound: C[C@@H]1C[C@@H]2[C@@H](/C=C\C=C\C(=O)Cc3cc(O)cc(O)c3C(=O)O1)C2(F)F [compound 38, Difluorocyclopropamonocilin]
concentration at which Her2 is degraded (HER2 [2]): 1 µM

IC50 (MCF7; [7]): 54000 pM
Compound: C[C@@H]1C[C@H]2C[C@@H]2/C=C\C=C\C(=O)Cc2c(Cl)c(O)cc(O)c2C(=O)O1 [compound 2, Cycloproparadicicol]
inhibition of breast cancer cell with wild type Rb [3]: potent inhibitors
concentration at which Her2 is degraded (HER2 [2]): 0.3 µM
effectiveness in reducing HER2 relative to radicicol (HER2 [4]): at least as effective, if not better than radicicol
growth inhibition activity (MCF7; [8]): most potent of the new compounds
binds to Hsp90 at (Hsp90): ca. 160 nM
inhibition of small cell lung cancer cell line with defective Rb function [1]: potent inhibitors
potency relative to 17-AGG in small cell lung cancer cell line with defective Rb function [1]: much more potent than 17-AGG

IC50 (MCF7; [7]): > 1e+07 pM
Compound: CO[C@H]1/C=C/C=C\[C@H]2C[C@@H]2C[C@@H](C)OC(=O)c2c(O)cc(O)cc2C1 [29α]
growth inhibition activity (MCF7; [8]): completely inactive

IC50 (MCF7; [7]): 1e+07 pM
Compound: C[C@@H]1C[C@@H]2[C@@H](/C=C\C=C\C(=O)Cc3c(Cl)c(O)cc(O)c3C(=O)O1)C2(F)F [compound 31, Difluorocycloproparadicicol]
concentration at which Her2 is degraded (HER2 [2]): 10 µM

IC50 (MCF7; [9]): 150000 pM
IC50 (MCF7; [7]): 150000 pM
Compound: C[C@@H]1C[C@H]2C[C@@H]2/C=C\C=C\[C@H](O)Cc2cc(O)cc(O)c2C(=O)O1 [27α]
concentration at which Her2 is degraded (HER2 [2]): 0.3 µM

IC50 (MCF7; [7]): > 500000 pM
Compound: C[C@@H]1C[C@H]2C[C@@H]2/C=C\C=C\[C@@H](O)Cc2cc(O)cc(O)c2C(=O)O1 [27β]
growth inhibition activity (MCF7; [8]): inactive

IC50 (MCF7; [9]): 390000 pM
IC50 (MCF7; [7]): 390000 pM
Compound: C[C@@H]1C[C@H]2C[C@@H]2/C=C\C=C\[C@H](O)Cc2c(Cl)c(O)cc(O)c2C(=O)O1 [28α]

IC50 (MCF7; [7]): 98000 pM
Compound: C[C@@H]1C[C@H]2C[C@@H]2\C=C/C=C/C(=N\O)Cc2c(Cl)c(O)cc(O)c2C(=O)O1 [(Z)-30]
concentration at which Her2 is degraded (HER2 [2]): 0.3 µM
potency relative to the corresponding (E)-isomer (MCF7; MCF breast cancer cells, 72 h): 3 times

IC50 (MCF7; [7]): 282000 pM
Compound: C[C@@H]1C[C@H]2C[C@@H]2\C=C/C=C/C(=N/O)Cc2c(Cl)c(O)cc(O)c2C(=O)O1 [(E)-30]
capacity to degrade Her2 (HER2 [2]): less effective
